Laboratory results from article PMC10661096, “Cryopreservation of assay-ready hepatocyte monolayers by chemically-induced ice nucleation: preservation of hepatic function and hepatotoxicity screening capabilities” (Biomaterials Science, 2023).
Several values for one entry are separate records, joined by “and”; a condition that tells them apart may be missing. Equal entries are not always repeated. Each block holds one compound with its values, some of them ahead of it.

Assays:
[1] = system: HepG2 cells; assay: Drug dose–response, resazurin reduction cell viability; assay type: cell-based; details: Homo sapiens, HepG2, 24 h, 24 h treatment
Method: Statistical analysis and data visualization were performed using GraphPad Prism 8 (La Jolla, California, USA). The Shapiro-Wilk test and Levene test were utilized to assess the normality of the data and equality of variances between groups. If the data met the assumptions of normality and equal variance, it was reported as mean ± SEM. Statistical significance between the means of 2 groups were assessed using an unpaired (independent) T-test and for 2+ groups a one-way analysis of variance (ANOVA), followed by Tukey's post hoc analysis, was used. […] Statistical significance between means was determined using Welch's t-test. The significance levels were represented as follows: not significant (ns) for p ≥ 0.05, * for p ≤ 0.05, ** for p ≤ 0.01, and **** for p ≤ 0.0001. Dose–response curves were generated using nonlinear regression with a variable slope (four parameters) fitted by the least squares regression method, without any weighting. GraphPad determined the EC50 values based on the fitting process. […] Fluorescence measurements were recorded with excitation and emission at 530/25 nm and 590/30 using a BioTek Synergy HT microplate reader. Wells with resazurin solution alone were also measured for background subtraction and cells untreated with pharmaceutically active compounds were measured as a maximum resazurin reduction value. […] Cell culture medium was replaced by cell culture media supplemented with acetaminophen (0–92.6 mM), diclofenac (0–3.4 mM), doxorubicin (0–9.2 mM), metformin (0–310 µM), phenformin (0–97.4 µM) and valproic acid (0–50 mM) and […] The cell culture medium was replaced with 100 µL of resazurin solution, prepared by dissolving 1 resazurin tablet (Scientific Laboratory Supplies, Nottingham, UK) in 50 mL of phenol-free DMEM/F-12 medium supplemented with 10% FBS and sterile filtered. The cells were incubated for 2 h in […] Fluorescence measurements were recorded with excitation and emission at 530/25 nm and 590/30 using a BioTek Synergy HT microplate reader. Wells with resazurin solution alone were also measured for background subtraction and cells untreated with pharmaceutically active compounds were measured as a maximum resazurin reduction value. Percentage cell viability was reported using the fluorescence readings using the following equation: Sample Fluorescence − Background Fluorescence x 100 Maximum (Untreated) Fluorescence − Background Fluorescence 1.7 Primary Hepatocyte Cryopreservation Mice were bred at the University of Warwick after local AWERB and Home Office approvals (PP3644080). Hepatocytes were isolated from adult (8- to 12-weeks old) male and female C57BL/6NCrl mice livers, via a two-step perfusion process. After cervical dislocation, the peritoneal cavity was open and a 27G needle was inserted into the vena cava. Perfusion was carried out through the vena cava at a flow rate of 6 mL.min-1 for 10 mins with buffers warmed S11

[2] = system: HepG2 cells; details: cited from earlier work; for Post-thaw cell recovery after preconditioning: HepG2 cells and other cell lines, increased from approximately 10–20% ref 22,23
[3] = system: HepG2 cells; assay: Post-thaw percentage cell recovery of monolayers in 96 well plates (Trypan Blue counts); assay type: cell-based, Human; details: −80 °C, 24 h post-thaw, additives supplemented with 10% DMSO
Method: (§1) HepG2 cells (density dependent on assay) and mouse hepatocytes (30k cell per well) were plated on rat tail type I collagen (100 μg mL^−1) coated 96 well plates and incubated for 24 hours. The cryoprotectant solution was prepared in advance. Hornbeam pollen (0.8 g) was suspended in sterile water (10 mL) for 24 h at 4 °C. The solution was sterile filtered and mixed 1 : 1 with either Eagle's minimum essential base medium (HepG2) or Williams E base medium (Mouse hepatocytes) supplemented with 20% FBS and 20% DMSO (final concentration 10%) to produce the cryopreservation formulation. The cell culture medium of the cells was replaced with 100 μL of the prechilled cryopreservation formulation (4 °C) and the plates were placed on a Corning XT CoolSink 96F and in a −80 °C freezer overnight. HepG2 cells and hepatocytes were also cryopreserved with 10% DMSO alone in cell culture medium for comparison. To thaw the cells, 150 μL of warm complete/thawing cell culture medium (37 °C) was added and the plates were placed in the incubator for 12 min. […]
(§2) HepG2 cells were cryopreserved between 1.6–30k cell per well and hepatocytes at a density of 30k cell per well. […] Freeze/Thaw and non-frozen HepG2 cells were counted daily until 80–90% confluency was reached to determine proliferation rates. […]

[4] = system: primary mouse hepatocytes; assay: Drug dose–response, resazurin reduction cell viability; assay type: cell-based; details: Hepatocyte, 24 h, 24 h treatment
Method: Non-frozen and freeze/thaw hepatocytes were treated with diclofenac (0–3.4 μM) and metformin (0–77.4 mM) and placed in a humidified environment at 37 °C and 5% CO2 for 24 h. The cell culture medium was replaced with 100 μL of resazurin solution and the cells were incubated for 2 h in a humidified environment at 37 °C and 5% CO2. Fluorescence measurements were recorded with excitation and emission at 530/25 nm and 590/30 using a BioTek Synergy HT microplate reader. […] Percentage cell viability was reported using the fluorescence readings using the following equation: [drawing 2]
The cell culture medium of freeze/thaw hepatocytes, produced in section 1.7, was replaced by
maintenance medium supplemented with diclofenac (0–3.4 mM) and metformin (0–77 µM)
and placed in a humidified environment at 37 °C and 5% CO2 for 24 h. The cell culture medium
(Scientific Laboratory Supplies, Nottingham, UK) in 50 mL of maintenance medium
supplemented with 10% FBS and sterile filtered. The cells were incubated for 24 h in a
humidified environment at 37 °C and 5% CO2. Fluorescence measurements were recorded with
𝑆𝑎𝑚𝑝𝑙𝑒 𝐹𝑙𝑢𝑜𝑟𝑒𝑠𝑐𝑒𝑛𝑐𝑒 − 𝐵𝑎𝑐𝑘𝑔𝑟𝑜𝑢𝑛𝑑 𝐹𝑙𝑢𝑜𝑟𝑒𝑠𝑐𝑒𝑛𝑐𝑒 x 100
𝑀𝑎𝑥𝑖𝑚𝑢𝑚 (𝑈𝑛𝑡𝑟𝑒𝑎𝑡𝑒𝑑) 𝐹𝑙𝑢𝑜𝑟𝑒𝑠𝑐𝑒𝑛𝑐𝑒 − 𝐵𝑎𝑐𝑘𝑔𝑟𝑜𝑢𝑛𝑑 𝐹𝑙𝑢𝑜𝑟𝑒𝑠𝑐𝑒𝑛𝑐𝑒

[5] = system: primary mouse hepatocytes; assay: Post-thaw percentage cell recovery of monolayers in 96 well plates (Trypan Blue counts); assay type: cell-based; details: primary mouse hepatocyte monolayers, 24 h post-thaw
Method: as §1, §2

[6] = system: A549 cells; assay: Post-thaw percentage cell recovery of monolayers in 96 well plates; assay type: cell-based, Human; details: 24 h post-thaw
Method: °C and 150 µL of warm complete cell medium (37 °C) was added. The cells were placed in the incubator for 12 mins, to allow thawing, and the solutions were replaced with 200 µL of warm complete cell medium (37 °C). The cells were placed in the incubator for a further 24 h.
Percentage cell recovery was determined by dissociating cells with trypsin (0.25%) and EDTA (1 mM), staining the cells with trypan blue (to count membrane intact cells) and comparing cell counts immediately before and 24 h after freeze/thaw. A549 cells were cryopreserved using the same approach as confluent monolayers (20k cells/well) and varying cell densities (outlined throughout) as another comparative cell line, using Ham's F-12K (Kaighn's) Medium supplemented with 10% FBS and 1% PSA as the complete growth medium and Ham's F-12K (Kaighn's) Medium alone as the base medium. Cell recovery values were also obtained for plates containing A549 and HepG2 cells stored for over 1 month in a -80 °C freezer.
1.5 Assessing Cellular Health
HepG2 cells (7.5k cell/well) were seeded in collagen (12.7 µg/cm2) coated 96 well plates and A549 cells (7.5k cell/well) were seeded in collagen uncoated 96 well plates. The plates were freeze/thawed as described in section 1.4. […]

[7] = Freeze/Thaw HepG2 cells (24 h post-thaw)
[8] = Freeze/Thaw adherent primary mouse hepatocytes
[9] = Non-frozen primary mouse hepatocytes

EC50 [1, 7]: 1790 µM
EC50 ([1]; Non-frozen HepG2 cells): 2880 µM
Structure (SMILES): CCCC(CCC)C(=O)O [VPA, valproic acid]

EC50 [1, 7]: 290 µM
EC50 ([1]; Non-frozen HepG2 cells): 330 µM
Structure (SMILES): [H]/N=C(/N)N/C(=N/[H])NCCc1ccccc1 [Phenformin, phenformin]

EC50 [1, 7]: 4280 µM
EC50 ([1]; Non-frozen HepG2 cells): 3780 µM
Structure (SMILES): CN(C)C(=N)N=C(N)N [Metformin, metformin]
EC50 [4, 8]: 600 µM
EC50 [4, 9]: 780 µM

Further lines, the compound ahead of its results:

Structure (SMILES): CC(=O)Nc1ccc(O)cc1 [Acetaminophen, acetaminophen]
EC50 [1, 7]: 11700 µM
EC50 ([1]; Non-frozen HepG2 cells): 14200 µM

Structure (SMILES): O=C(O)[C@@H]1CCCN1 [proline]
Post-thaw cell recovery after preconditioning [2]: 50%

Structure (SMILES): OC[C@H]1O[C@H](O[C@H]2O[C@H](CO)[C@@H](O)[C@H](O)[C@H]2O)[C@H](O)[C@@H](O)[C@@H]1O [trehalose]
Post-thaw cell recovery after preconditioning [2]: 50%
Cell recovery after preconditioning with trehalose ([2]; HepG2 monolayers ref 23): 42%

Structure (SMILES): CC(C)CCC[C@@H](C)[C@H]1CC[C@H]2[C@@H]3CC=C4C[C@@H](O)CC[C@]4(C)[C@H]3CC[C@]12C.O [cholesterol monohydrate]
Post-thaw percentage cell recovery [3]: ~60%

Structure (SMILES): O=C(O)Cc1ccccc1Nc1c(Cl)cccc1Cl [Diclofenac, diclofenac]
EC50 [4, 8]: 880 µM
EC50 [4, 9]: 780 µM

Structure (SMILES): COc1cccc2c1C(=O)c1c(O)c3c(c(O)c1C2=O)C[C@@](O)(C(=O)CO)C[C@@H]3O[C@H]1C[C@H](N)[C@H](O)[C@H](C)O1 [Doxorubicin, doxorubicin]
EC50 [1, 7]: 16.3 µM
EC50 ([1]; Non-frozen HepG2 cells): 2 µM

Structure (SMILES): C[S+](C)[O-] [10% DMSO, dimethyl sulfoxide]
Post-thaw percentage cell recovery [3]: 10% and 12.6%
Post-thaw percentage cell recovery [5]: 50%
Post-thaw percentage cell recovery [6]: 29%
